Test results reported in patent US5482954A, “Signal transduction inhibitor triazole and diazole compounds” (priority 1994, dated 1996).
Several values for one entry are separate records, joined by “and”; a condition that tells them apart may be missing. Equal values may be shown once. Read-outs that look alike come from different tables or passages of the source.

Assays:
[1] = test system: HT-29 human colon cancer cells; assay: Experimental pulmonary metastasis, tumor cells pretreated in vitro; assay type: in vivo, nude mice; conditions: cells treated 10 μg/mL, 24 hr; day 28
Description: Compound 1 was also tested for efficacy against HT-29 human colon cancer cells. HT-29 tumor cells were incubated with compound 1, 10 μg/mL, or DMSO vehicle (0.05%) for 24 hr. After harvesting and washing, one million cells were injected into the lateral tail vein of nude mice. Animals were humanely sacrificed on day 28, the lungs were inflated and fixed, and the number of pulmonary metastases were then counted. Observations on the size of the metastases were also made.

[2] = test system: solid tumor metastasis; assay: Phase I clinical study, tumor response; assay type: in vivo, human
Excerpt: This example illustrates the effect of compound 1 on tumor growth and metastasis when administered orally to seven patients in an FDA approved phase I clinical study.
(§1) Seven patients with solid tumor metastasis are undergoing treatment via oral administration of compound 1 under the FDA approved phase I clinical study. Table J provides data on the patients' response to this treatment. PT# is patient number. Response is the sum of the products of bidirectional measurements. No measurement means that while the disease was evaluable, it was not measureable. The concentration of the drug in the blood of the patients is well within the range which inhibits signal transduction in vitro and which inhibits tumor growth in vitro and in animals.

[3] = Plasma levels in patients of phase I clinical study; assay type: in vivo; conditions: human, po
Excerpt: as §1
The concentration of compound 1 in the blood of patient #1 was from 1-2 μg/mL, while that of the other three patients was >3 μg/mL (>7 μM). These concentrations are well within the range which inhibit signal transduction in vitro and which inhibit tumor growth in animals.

[4] = patient 1, melanoma, 100 mg/m^2 qod
[5] = patient 2, colon, 100 mg/m^2 qd
[6] = patient 4, ovary, 100 mg/m^2 qd

With `NC(=O)c1nnn(Cc2cc(Cl)c(C(=O)c3ccc(Cl)cc3)c(Cl)c2)c1N` [Compound 1] the “inhibition of pulmonary colonization” value [1] was 96%, the “size of pulmonary metastases” value [1] was “marked reduction in size” and the RESPONSE [2, 4] was “Stable”. For the same molecule, the “RESPONSE (sum of products of bidirectional measurements)” value [2, 4] was “+8%”, the “inhibition of growth rate (cm^2 /day)” value ([2]; patient 1, metastasis lesion #1, X-ray) was 79% and the “inhibition of growth rate (cm^2 /day)” value ([2]; patient 1, metastasis lesion #2, X-ray) was 59%. For the same molecule, the “suppression and regression of colon cancer metastases” value ([2]; patient 2) was “suppression and regression of 3 of 3 colon cancer metastases”, the RESPONSE [2, 5] was “Stable” and the “RESPONSE (sum of products of bidirectional measurements)” value [2, 5] was -22%. The RESPONSE ([2]; patient 3, colon, 100 mg/m^2 qd) was “Stable”, the RESPONSE [2, 6] was “Stable” and the “RESPONSE (sum of products of bidirectional measurements)” value [2, 6] was -21%. For the same molecule, the RESPONSE ([2]; patient 5, lung, 200 mg/m^2 qod) was “Stable”, the RESPONSE ([2]; patient 6, carcinoid, 200 mg/m^2 qod) was “Stable” and the RESPONSE ([2]; patient 7, colon, 200 mg/m^2 qod) was “Progres-”. The Cmax ([3]; 100 mg/m^2, patient 1, melanoma, 100 mg/m^2 qod, oral, read-out: PEAK LEVEL) was 1250 ng/mL, the Cmax ([3]; 100 mg/m^2, patient 2, colon, 100 mg/m^2 qd, oral, read-out: PEAK LEVEL) was 3610 ng/mL and the Cmax ([3]; 100 mg/m^2, patient 3, colon, 100 mg/m^2 qd, oral, read-out: PEAK LEVEL) was 3530 ng/mL. It also gave a Cmax ([3]; 100 mg/m^2, patient 4, ovary, 100 mg/m^2 qd, oral, read-out: PEAK LEVEL) of 3080 ng/mL, a Cmax ([3]; 200 mg/m^2, patient 5, lung, 200 mg/m^2 qod, oral, read-out: PEAK LEVEL) of 1770 ng/mL and a Cmax ([3]; 200 mg/m^2, patient 6, carcinoid, 200 mg/m^2 qod, oral, read-out: PEAK LEVEL) of 1340 ng/mL. For the same molecule, the Cmax ([3]; 200 mg/m^2, patient 7, colon, 200 mg/m^2 qod, oral, read-out: PEAK LEVEL) was 2830 ng/mL, the Cmax ([3]; other three patients of FIG. 19, read-out: concentration in the blood (peak/steady state)) was > 3000 ng/mL and > 7 µM and the Cmax ([3]; patient #1, read-out: concentration in the blood (peak/steady state)) was 1000 to 2000 ng/mL.
